Data published in patent US20210349077A1, “Method of quantifying induced membrane permeability and of screening compounds able to prevent said permeability” (Zarbio, priority 2020, published 2021).

Tests used:
[1] = Flow cytometric calcium permeabilization of phosphatidylserine liposomes (DiD membrane probe, Fluo-3 calcium probe); type: biochemical; details: for permeability of liposomes to calcium: peptide stock in DMSO, final concentration 10 μM; for channel formation / permeabilization of membranes to calcium: summary statement, FIG. 10 and 12
Description: (§1) Unilamellar liposomes are created with Fluo-3 membrane-impermeant fluorescent dye sensitive to the concentration of calcium (an example of ion sensitive probe, ISP, at the FIG. 2). The buffer for the created liposomes is calcium-free, and can contain calcium-chelating agents, such as EGTA or EDTA. Both calcium-free and calcium-bound Fluo-3 effectively absorb light with wavelength of 488 nm (one of typical lasers used in flow cytometers, blue light). […] Measuring the fluorescence at 520 nm allows to distinguish the liposomes which contain free calcium and those which are impermeant to calcium.
(§2) To identify liposomes in the flow, lipids can be supplemented with a lipophilic dye such as 1,1′-dioctadecyl-3,3,3′,3′-tetramethylindodicarbocyanine (DiD), which serves as membrane probe (MP at the FIG. 2). […] However, after ion channels are formed in the particular liposome, the electrolytes are equilibrated between inside and outside of the liposome. Therefore, due to the presence of calcium outside, the liposomes with the channels will have high free calcium, so Fluo-3 will have intensive fluorescence.
(§3) In the flow cytometer, the appearance of channels is visible as increasing proportion of calcium-loaded liposomes compared with calcium-free liposomes. When every liposome becomes permeant to calcium, all liposomes will be presented as loaded with calcium. This condition is used for normalization and can be achieved in control experiments by the addition of calcium ionophore such as ionomycin.
Liposomes (400 nm) were made of phosphatidylserine with DiD and were extruded in the buffer without (A-C) or with (D-I) 1 mM Fluo-3. […] Liposomes with membrane but without calcium-sensitive probe in the presence of calcium. • D, E, F (Second row). Liposomes with both membrane and calcium-sensitive probe in the presence of calcium. • G, H, I (Third row). Liposomes with both membrane and calcium-sensitive probe in the absence of calcium. • A, D, G (First column). Liposomes only. • B, E, H (Second column). Liposomes with added 5 μM Aβ25-35. • C, F, I (Third column). Liposomes with added 5 μM Aβ25-35 followed by ionomycin.
Liposomes made of phosphatidylserine and contained both DiD and Fluo-3. In a calcium-containing medium, membranes are not permeant to calcium, so there is a minimal number of liposomes with increased levels of green fluorescence (A). […] Increasing concentration of amyloid peptide increases the number of permeant liposomes (C, D).
This figure summarizes data from experiments, described at the FIG. 10. Liposomes made of phosphatidylserine and contained both DiD and Fluo-3 were treated by various concentrations of Aβ25-35. For the treatment, the same stock solution of peptide in distilled water was added to the suspension of liposomes in a calcium-containing medium. The gate to count the number of permeabilized vesicles is shown at the density plot (left graph).
Phosphatidylserine liposomes were prepared to contain both DiD and Fluo-3 as described for previous figures. Liposomes were tested to be permeabilized by Aβ25-35. • A. Control PS liposomes with calcium (60 μM). Limited number of events is registered in the area corresponding to permeabilized vesicles. • B. Effect of Aβ1-42 (8 μM). […] Effect of ionomycin (50 nM, positive control).
In this experiment, stock solution of peptides was prepared in DMSO to extend the testing to the peptide which are not soluble in water-based excipients. […] There is no difference between the effects of the peptide that was dissolved initially in DMSO (“Lip+Pep/DMSO”) and water (not shown here). • C.
The permeabilization to calcium ions will be described first as an example. To detect calcium transmembrane transfer, calcium-sensitive probes are used, such as Fluo-3 or Fluo-4 which dramatically increase their fluorescence upon binding calcium. Liposomes are formed in a calcium-free medium containing calcium-sensitive probe. […]

[2] = Flow cytometric fluorescence test of phosphatidylcholine liposomes (DiD, Fluo-3); type: biochemical
Description: as §1, §2, §3
Liposomes (400 nm) were made of phosphatidylcholine with DiD and were extruded in the buffer containing 1 mM Fluo-3 (A-H) or without Fluo-3 (I, J).
The effect of Aβ25-35 was the same in calcium-free medium with EGTA (F,G).

## Aβ31-35: amyloid-beta peptide fragment tested at 10 μM from DMSO stock (IIGLM; Amyloid-beta protein 42; UniProt P05067 702-706, looked up, fragment)
[1]
  permeability of liposomes to calcium: did not affect the permeability of liposomes

## Aβ25-35: short fragment of beta-amyloid peptide that forms membrane channels (GSNKGAIIGLM; Amyloid-beta protein 42; UniProt P05067 696-706, looked up, fragment)
[1]
  time for effects of the peptide to develop after addition to liposomes: within the first minute
  permeability of liposomes to calcium: permeabilized liposomes
  channel formation / permeabilization of membranes to calcium: efficiently permeabilize multiple liposomes
[1]; 2 μM peptide, calcium-containing medium
  liposomes made permeant to calcium: makes some of liposomes permeant to calcium
[1]; 5 μM peptide, 400 nm liposomes with 1 mM Fluo-3, extravesicular calcium present
  green (Fluo-3) signal from vesicles: increased green signal from vesicles only in the presence of both Fluo-3 and calcium
[1]; 5 μM peptide, DiD-only liposomes or calcium-free buffer (EGTA)
  green signal from vesicles: did not have effect
[1]; incubation with the peptide for up to one hour
  change in number of permeabilized liposomes on prolonged incubation: does not change the number of permeabilized liposomes
[1]; phosphatidylserine liposomes, various conditions (FIG. 11)
  liposomes of total number that become permeant to calcium: up to 10%
[1]; various concentrations, stock in distilled water, calcium-containing medium
  dependence of number of permeabilized liposomes on amount of added peptide: linearly dependent on the amount of added peptide
[2]; calcium-free medium with EGTA
  effect on green signal compared with calcium-containing medium: the same
[2]; concentrations above 10 μM (20 μM, 50 μM), 400 nm liposomes with 1 mM Fluo-3, calcium present
  green signal from vesicles: slightly but reproducibly increased green signal from vesicles
[2]; liposomes extruded without Fluo-3
  shift of green fluorescence distribution: still shifted the distribution upward

## Aβ1-42: full-length amyloid peptide
[1]; 8 μM peptide, calcium 60 μM, compared with control
  number of events in the area corresponding to permeabilized vesicles: does not exceed same number observed in control experiment
[1]
  channel formation / permeabilization of membranes to calcium: does not create channels permeabilizing membranes to calcium

## C[C@H](CCC(=O)O)C[C@H](C)C[C@H](C)C(=O)/C=C(\O)[C@H](C)C[C@H](C)C/C=C/[C@@H](C)[C@@H](O)[C@@H](C)[C@@H](O)C[C@@H]1CC[C@@](C)([C@H]2CC[C@@](C)([C@@H](C)O)O2)O1 [ionomycin]
[1]; 50 nM, calcium 60 μM
  permeabilization of liposomes (positive control): permeabilizes all liposomes
[1]; DiD-only vesicles and in the absence of calcium
  effect of ionomycin added following 5 μM Aβ25-35: did not produce any effect
[1]; liposomes with Fluo-3, calcium present
  Fluo-3 signal after ionomycin added following 5 μM Aβ25-35: did not further increase the Fluo-3 signal from vesicles with low DiD signal but additionally shifted upwards the part of the distribution with high DiD signal
[2]; liposomes with 1 mM Fluo-3, calcium present
  fluorescence after ionophore addition: significantly increased fluorescence
